The values below come from US20240400555A1 (Initial Therapeutics, Inc., priority 2023, published 2024).

In one assay the test system is HCT-116 Firefly-luciferase reporter cells. Put plainly: Cellular c-MYC Reporter Assay. The following applies: Homo sapiens, HCT-116, 24 h, read-out: pIC50 (converted). It is filed as cell-based. In short, it runs like this: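 Reporter cells seeded at 5e4 cells/mL in McCoy's 5A with 10% FBS and G418, dosed after 4–6 h at 0.2% final DMSO. After 24 h at 37 °C, luciferase luminescence was read with ONE-Glo.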
A general note: A reporter such as luciferase makes a cellular process visible.
Take `Cc1cccc2ccnc(N(C(=O)c3ccc(-n4nnc5cccnc54)cc3)[C@H]3CCCNCC3)c12` [Example 228, (S)-4-(3H-[1,2,3]triazolo[4,5-b]pyridin-3-yl)-N-(azepan-4-yl)-N-(8-methylisoquinolin-1-yl)benzamide]: the IC50 is greater than 20000 nM.
`Cc1cccc2ccnc(N(C(=O)c3ccc(-n4nnc5cccnc54)cc3)[C@@H]3CCCNCC3)c12` [Example 229, (R)-4-(3H-[1,2,3]triazolo[4,5-b]pyridin-3-yl)-N-(azepan-4-yl)-N-(8-methylisoquinolin-1-yl)benzamide]: the IC50 was 15100 nM.

Still in this assay, the particulars now being: Homo sapiens; untitled table following Table 8a; HCT-116 Firefly-luciferase reporter cells, 24 h; read-out: pIC50 (converted).
For `Cc1cccc2ccnc(N(C(=O)c3ccc(-n4nnc5ccc(Cl)nc54)cc3F)[C@@H]3CCCNC3)c12` [Example 192, (R)-4-(5-chloro-3H-[1,2,3]triazolo[4,5-b]pyridin-3-yl)-2-fluoro-N-(8-methylisoquinolin-1-yl)-N-(piperidin-3-yl)benzamide], the IC50 is 170 nM.
With `Cc1cccc2ccnc(N(C(=O)c3ccc(-c4cn(C)nn4)cc3F)[C@@H]3CCCNC3)c12` [Example 193, (R)-2-fluoro-4-(1-methyl-1H-1,2,3-triazol-4-yl)-N-(8-methylisoquinolin-1-yl)-N-(piperidin-3-yl)benzamide], the IC50 was 79.4 nM.
On to `Cc1cccc2ccnc(N(C(=O)c3ccc(-n4nccn4)cc3F)[C@@H]3CCCNC3)c12` [Example 194, (R)-2-fluoro-N-(8-methylisoquinolin-1-yl)-N-(piperidin-3-yl)-4-(2H-1,2,3-triazol-2-yl)benzamide], for which the IC50 is 1200 nM.
With `Cc1nnn(-c2ccc(C(=O)N(c3nccc4cccc(C)c34)[C@@H]3CCCNC3)c(F)c2)n1` [Example 195, (R)-2-fluoro-4-(5-methyl-2H-tetrazol-2-yl)-N-(8-methylisoquinolin-1-yl)-N-(piperidin-3-yl) benzamide], the IC50 was 87.1 nM.
As for `Cc1cccc2ccnc(N(C(=O)c3ccc(-c4onc5ccccc45)cc3F)[C@@H]3CCCNC3)c12` [Example 196, (R)-4-(benzo[c]isoxazol-3-yl)-2-fluoro-N-(8-methylisoquinolin-1-yl)-N-(piperidin-3-yl)benzamide], the IC50 was greater than 20000 nM.
For the molecule `Cc1cccc2ccnc(N(C(=O)c3ccc(-c4cncc(C#N)n4)cc3F)[C@@H]3CCCNC3)c12` [Example 198, (R)-2-fluoro-N-(8-methylisoquinolin-1-yl)-4-(6-cyanopyrazin-2-yl)-N-(piperidin-3-yl)benzamide], the IC50 is 617 nM.
With `Cc1cc(C2CCN(C(=O)N(c3nccc4cccc(C)c34)[C@@H]3CCCNC3)CC2)ccn1` [Example 199, (R)—N-(8-methylisoquinolin-1-yl)-4-(2-methylpyridin-4-yl)-N-(piperidin-3-yl)piperidine-1-carboxamide], the IC50 was 263 nM.
The same measure, in the same setting: in the case of `O=C(c1ncc(-n2nnc3cccnc32)cc1F)N(c1nccc2cccc(Cl)c12)[C@@H]1CCCNC1` [Example 200, (R)-5-(3H-[1,2,3]triazolo[4,5-b]pyridin-3-yl)-N-(8-chloroisoquinolin-1-yl)-3-fluoro-N-(piperidin-3-yl)picolinamide] it was 77.6 nM; in that of `Cc1cccc2ccnc(N(C(=O)c3ncc(-n4nnc5cccnc54)cc3F)[C@@H]3CCCNC3)c12` [Example 201, (R)-5-(3H-[1,2,3]triazolo[4,5-b]pyridin-3-yl)-3-fluoro-N-(8-methylisoquinolin-1-yl)-N-(piperidin-3-yl)picolinamide], 148 nM.
On to `Cc1cncc(-c2ccc(C(=O)N(c3nccc4cccc(C)c34)[C@@H]3CCCNC3)c(F)c2)n1` [Example 202, (R)-2-fluoro-N-(8-methylisoquinolin-1-yl)-4-(6-methylpyrazin-2-yl)-N-(piperidin-3-yl)benzamide], for which the IC50 was 372 nM.
On to `Cc1nccnc1-c1ccc(C(=O)N(c2nccc3cccc(C)c23)[C@@H]2CCCNC2)c(F)c1` [Example 203, (R)-2-fluoro-N-(8-methylisoquinolin-1-yl)-4-(3-methylpyrazin-2-yl)-N-(piperidin-3-yl)benzamide], for which the IC50 was 129 nM.
In the case of `Cc1cccc2ccnc(N(C(=O)c3ccc(-c4cnccn4)cc3F)[C@@H]3CCCNC3)c12` [Example 204, (R)-2-fluoro-N-(8-methylisoquinolin-1-yl)-N-(piperidin-3-yl)-4-(pyrazin-2-yl)benzamide], the IC50 was 479 nM.
As for `Cc1cccc2ccnc(N(C(=O)c3ccc(-n4nnc5ccc(C(F)(F)F)nc54)cc3F)[C@@H]3CCCNC3)c12` [Example 205, (R)-2-fluoro-N-(8-methylisoquinolin-1-yl)-N-(piperidin-3-yl)-4-(5-(trifluoromethyl)-3H-[1,2,3]triazolo[4,5-b]pyridin-3-yl)benzamide], the IC50 was 170 nM.
On to `Cc1cccc2ccnc(N(C(=O)N3CCC(Nc4ncccn4)CC3)[C@@H]3CCCNC3)c12` [Example 208, (R)—N-(8-methylisoquinolin-1-yl)-N-(piperidin-3-yl)-4-(pyrimidin-2-ylamino)piperidine-1-carboxamide], for which the IC50 is 3550 nM.
For `Cc1ccc2nnn(-c3ccc(C(=O)N(c4nccc5ccn(C)c45)[C@@H]4CCCNC4)c(F)c3)c2n1` [Example 209, (R)-2-fluoro-N-(1-methyl-1H-pyrrolo[2,3-c]pyridin-7-yl)-4-(5-methyl-3H-[1,2,3]triazolo[4,5-b]pyridin-3-yl)-N-(piperidin-3-yl)benzamide], the IC50 was 141 nM.
The same measure, in the same setting: the result for `Cc1cccc2ccnc(N(C(=O)c3ccc(Nc4ncccn4)cc3F)[C@@H]3CCCNC3)c12` [Example 210, (R)-2-fluoro-N-(8-methylisoquinolin-1-yl)-N-(piperidin-3-yl)-4-(pyrimidin-2-ylamino)benzamide] reads 275 nM; that for `Cc1cc(-c2ccc(C(=O)N(c3nccc4ccn(C)c34)[C@@H]3CCCNC3)c(F)c2)on1` [Example 212, (R)-2-fluoro-N-(1-methyl-1H-pyrrolo[2,3-c]pyridin-7-yl)-4-(3-methylisoxazol-5-yl)-N-(piperidin-3-yl)benzamide], 355 nM.
For the molecule `CNC(=O)c1cccnc1N(C(=O)c1ccc(-n2nnc3cccnc32)cc1F)[C@@H]1CCCNC1` [Example 213, (R)-2-(4-(3H-[1,2,3]triazolo[4,5-b]pyridin-3-yl)-2-fluoro-N-(piperidin-3-yl)benzamido)-N-methylnicotinamide], the IC50 was 646 nM.
With `Cc1cccc2ccnc(N(C(=O)c3ccc(-c4cnn5cccnc45)cc3F)[C@@H]3CCCNC3)c12` [Example 215, (R)-2-fluoro-N-(8-methylisoquinolin-1-yl)-N-(piperidin-3-yl)-4-(pyrazolo[1,5-a]pyrimidin-3-yl)benzamide], the IC50 was 269 nM.
Consider `CCc1ccc2nnn(-c3ccc(C(=O)N(c4nccc5cccc(C)c45)[C@@H]4CCCNC4)c(F)c3)c2n1` [Example 216, (R)-4-(5-ethyl-3H-[1,2,3]triazolo[4,5-b]pyridin-3-yl)-2-fluoro-N-(8-methylisoquinolin-1-yl)-N-(piperidin-3-yl)benzamide], for which the IC50 is 437 nM.
Regarding `Cc1cccc2ccnc(N(C(=O)c3c(F)cc(-n4nnc5cccnc54)cc3F)[C@@H]3CCCNC3)c12` [Example 218, (R)-4-(3H-[1,2,3]triazolo[4,5-b]pyridin-3-yl)-2,6-difluoro-N-(8-methylisoquinolin-1-yl)-N-(piperidin-3-yl)benzamide], the IC50 is 43.7 nM.
`Cc1cccc2ccnc(N(C(=O)c3ccc(N4CCOCC4)cc3)[C@@H]3CCCNC3)c12` [Example 219, (R)—N-(8-methylisoquinolin-1-yl)-4-morpholino-N-(piperidin-3-yl)benzamide]: the IC50 is 6310 nM.
`O=C(c1ccc(-n2nnc3cccnc32)cc1F)N(c1nccc2cccc(C(F)(F)F)c12)[C@@H]1CCCNC1` [Example 221, (R)-4-(3H-[1,2,3]triazolo[4,5-b]pyridin-3-yl)-2-fluoro-N-(piperidin-3-yl)-N-(8-(trifluoromethyl)isoquinolin-1-yl)benzamide]: the IC50 was 2000 nM.
For the molecule `COc1cccc2ccnc(N(C(=O)c3ccc(-n4nnc5cccnc54)cc3F)[C@@H]3CCCNC3)c12` [Example 222, (R)-4-(3H-[1,2,3]triazolo[4,5-b]pyridin-3-yl)-2-fluoro-N-(8-methoxyisoquinolin-1-yl)-N-(piperidin-3-yl)benzamide], the IC50 is 93.3 nM.
On the same count and under the same terms, in the case of `Cc1cccc2ccnc(N(C(=O)c3ccc(-n4nnc5ccccc54)cc3)[C@@H]3CCCNC3)c12` [Example 223, (R)-4-(1H-benzo[d][1,2,3]triazol-1-yl)-N-(8-methylisoquinolin-1-yl)-N-(piperidin-3-yl)benzamide] it was 214 nM; in that of `Cc1cccc2ccnc(N(C(=O)c3ccc(-n4nnc5cccnc54)cc3)[C@H]3CNCC[C@@H]3C)c12` [Example 224, 4-(3H-[1,2,3]triazolo[4,5-b]pyridin-3-yl)-N-(8-methylisoquinolin-1-yl)-N-((3R,4S)-4-methylpiperidin-3-yl)benzamide], greater than 20000 nM.
As for `Cc1cccc2ccnc(N(C(=O)c3ccc(-n4nnc5cccnc54)cc3)[C@H]3CNC[C@@H](C)C3)c12` [Example 225, 4-(3H-[1,2,3]triazolo[4,5-b]pyridin-3-yl)-N-(8-methylisoquinolin-1-yl)-N-((3R,5S)-5-methylpiperidin-3-yl)benzamide], the IC50 is 4790 nM.
On the same count and under the same terms, in the case of `Cc1cccc2ccnc(N(C(=O)c3ccc(-n4nnc5cccnc54)cc3)[C@@H]3CC[C@@H](C)NC3)c12` [Example 226, 4-(3H-[1,2,3]triazolo[4,5-b]pyridin-3-yl)-N-(8-methylisoquinolin-1-yl)-N-((3R,6R)-6-methylpiperidin-3-yl)benzamide] it was greater than 20000 nM; in that of `Cc1cccc2ccnc(N(C(=O)c3ccc(-n4nnc5cccnc54)cc3)[C@H]3CCCCNC3)c12` [Example 227, (S)-4-(3H-[1,2,3]triazolo[4,5-b]pyridin-3-yl)-N-(azepan-3-yl)-N-(8-methylisoquinolin-1-yl)benzamide], greater than 20000 nM.
